Tests used:
Type in all cases: cell-based
[1] = tested on: production of PGD2 (cyclooxygenase pathway) by RBL-1 cells; experiment: Inhibition of the cyclooxygenase pathway (PGD2 formation) in RBL-1 cells; conditions: Rattus norvegicus, 5 min, [14C]-arachidonic acid plus calcium ionophore, N in brackets, read-out: RBL-cells PGD2 formation IC50 ± SD (N)
Method: METHOD FOR ASSESSING THE INHIBITION OF THE CYCLOOXYGENASE PATHWAY IN (RBL) CELLS
a) RBL-1 cell incubations. […] A 0.5 ml allquot of cell suspension was preincubated at 30° C. for 10 minutes with 1 μl dimethyl sulfoxide (DMSO) solution of drug. […] Five minutes later, the incubation was terminated by the addition of a 0.27 ml volume of acetonitrile (ACN)/acetic acid (HOAc) (100:3). The mixture was then clarified of precipitated protein by centrifugation. Analysis of 5-LO/COX pathway products was performed by radioactivity monitoring after separation by high performance liquid chromatography (HPLC). […] The area under the curve (AUC) as measured in integration units for each product was compared to the average AUC value for untreated (no drug) controls. […] Half-maximal (IC50) points were estimated from these curves.

[2] = tested on: IL-1β release by human monocytes; experiment: ATP-induced IL-1β posttranslational processing (ATP kick), ELISA; conditions: Monocyte, LPS-stimulated human monocytes, IL-1β ELISA, read-out: Human Monocyte AtP kick % Inh.
Method: PROTOCOL FOR ATP-INDUCED IL-Iβ POSTTRANSLATIONAL PROCESSING
Cells: Human monocytes were isolated by Ficoll-Hypaque centrifugation of heparinized blood. The monocyte band off the gradient was collected, diluted with RPMI 1640, 5% fetal bovine serum (FBS), 20 mM N-[2[hydroxyethyl]piperazine-N-[2-ethanesulfonic acid] (Hepes), pH 7.3 (40 ml) and the cells were collected by centrifugation. The cell pellet was washed twice with 30 ml of RPMI 1640, 5% FBS, 20 mM Hepes (Maintenance Medium). The monocytes were resuspended in 50 ml of the Maintenance Medium. Into each well of a 96 well plate was added […] mononuclear cells. The cell suspension was diluted to a final concentration of 1.5×10^5 mononuclear cells. (To accomplish this, the cell suspension was diluted to a final concentration of 1.5×10^6 cell/ml and 0.2 ml was added to each well of the plate.) After incubating at 37° C. for 2 hours, the supernatant containing non-adherent cells was removed by aspiration. The adherent cells were washed once with 0.15 ml of Maintenance medium. Then, 0.15 ml of fresh Maintenance Medium was added and the cells were incubated overnight at 37° C.
Stimulation: Lipopolysaccharide (LPS) was added to a final concentration of 10 ng/ml and incubated at 37° C. for 2 hours. […]

[3] = tested on: IL-1β release by human monocytes; experiment: ATP kick, slightly different assay that employed metabolically labeled cells; conditions: Monocyte, read-out: Human Monocyte AtP kick IC50 (No. Trials), starred values
Text: *Values for tenidap (the first compound in the table), and in one case
ilonidap (the second compound in the table) were derived from a slightly
different assay that employed metabolically labeled cells.

Row | SMILES | IC50 [1] | inhibition at 19 µM [2] | IC50 [3]
1 | NC(=O)N1C(=O)C(C(=O)c2ccoc2)c2cc(Cl)ccc21 (centres unmarked) [Cl H 3'-furyl] | 3.2 µM | – | –
2 | NC(=O)N1C(=O)C(C(=O)c2ccsc2)c2cc(Cl)ccc21 (centres unmarked) [Cl H 3'-thienyl] | 0.7 µM | 14% | –
3 | NC(=O)N1C(=O)C(C(=O)c2cccs2)c2cc(Cl)ccc21 (centres unmarked) [tenidap, 5-chloro-2,3-dihydro-2-oxo-3-(2-thienylcarbonyl)-indole-1-carboxamide] | 0.02 ± 0.02 µM | – | 40 µM

Continued by falling IC50 [1], values first:

Row | IC50 [1] | SMILES | inhibition at 19 µM [2] | IC50 [3]
4 | 99 µM | Cc1ccc2c(c1)C(C(=O)c1cccs1)C(=O)N2C(N)=O (centres unmarked) [CH3 H 2'-thienyl] | 32% | –
5 | 37 µM | NC(=O)N1C(=O)C(C(=O)C(F)(F)F)c2cc(Cl)ccc21 (centres unmarked) [Cl H Trifluoromethyl] | – | –
